The record followed here is ChEMBL document CHEMBL1153383, “Novel 2- and 4-substituted 1H-imidazo[4,5-c]quinolin-4-amine derivatives as allosteric modulators of the A3 adenosine receptor” (J Med Chem, 2009).

For assay [1], the target named is T1, Adenosine receptor A3 (Homo sapiens) (UniProt P0DMS8).
T1 sequence (whole entry): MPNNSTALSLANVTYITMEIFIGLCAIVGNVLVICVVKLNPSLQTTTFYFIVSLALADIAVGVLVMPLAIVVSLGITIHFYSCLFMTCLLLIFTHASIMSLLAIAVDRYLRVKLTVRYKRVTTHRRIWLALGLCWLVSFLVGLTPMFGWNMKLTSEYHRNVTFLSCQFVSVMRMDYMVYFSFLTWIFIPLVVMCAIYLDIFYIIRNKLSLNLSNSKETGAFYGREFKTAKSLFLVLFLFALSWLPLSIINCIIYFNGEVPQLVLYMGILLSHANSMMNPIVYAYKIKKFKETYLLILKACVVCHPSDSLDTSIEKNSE
Kind of assay: Decrease in dissociation of [125I]I-AB-MECA from human recombinant adenosine A3 receptor expressed in CHO cells at 10 uM after 60 mins relative to control. The format is cell-based. Also on record: scale not given: the % may be the effect or the level left.

Assay [2] addresses T1, Adenosine receptor A3 (Homo sapiens). Kind of assay: Increase in efficacy of stimulation of [35S]GTPgammaS binding to human adenosine A3 receptor expressed in CHO cells at 10 uM by liquid scintillation counting relative to C1-IB-MECA. The format is functional, cell-based. On the technique in general: GTPγS resists hydrolysis and so accumulates on activated G proteins.
In assay [3] the target is T2, Adenosine receptor A1 (Homo sapiens) (UniProt P30542).
T2 sequence (whole entry): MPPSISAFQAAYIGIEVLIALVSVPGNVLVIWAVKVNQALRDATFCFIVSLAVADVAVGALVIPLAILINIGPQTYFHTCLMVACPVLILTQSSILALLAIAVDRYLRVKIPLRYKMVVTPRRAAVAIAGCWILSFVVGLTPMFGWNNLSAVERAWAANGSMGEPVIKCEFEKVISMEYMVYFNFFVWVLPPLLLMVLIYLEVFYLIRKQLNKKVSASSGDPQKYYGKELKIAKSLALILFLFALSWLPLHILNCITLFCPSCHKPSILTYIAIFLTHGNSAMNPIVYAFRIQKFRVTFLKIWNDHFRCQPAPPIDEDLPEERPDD
Kind of assay: Displacement of [3H]CCPA from human recombinant adenosine A1 receptor expressed in CHO cells at 10 uM. The format is cell-based. (In general: Loss of bound radioactivity is the signal in a displacement assay; it reports binding, not function.)

The target of assay [4] is Adenosine receptor A2a (Homo sapiens) (UniProt P29274). Kind of assay: Displacement of [3H]CGS21680 from human recombinant adenosine A2A receptor expressed in HEK293 cells at 10 uM. In kind it is cell-based.
Assay [5] has as its target T1, Adenosine receptor A3 (Homo sapiens). Briefly: Displacement of [125I]I-AB-MECA from human recombinant adenosine A3 receptor expressed in CHO cells at 10 uM. In kind it is cell-based.

Chain of Adenosine receptor A2a (Homo sapiens) (P29274 whole entry): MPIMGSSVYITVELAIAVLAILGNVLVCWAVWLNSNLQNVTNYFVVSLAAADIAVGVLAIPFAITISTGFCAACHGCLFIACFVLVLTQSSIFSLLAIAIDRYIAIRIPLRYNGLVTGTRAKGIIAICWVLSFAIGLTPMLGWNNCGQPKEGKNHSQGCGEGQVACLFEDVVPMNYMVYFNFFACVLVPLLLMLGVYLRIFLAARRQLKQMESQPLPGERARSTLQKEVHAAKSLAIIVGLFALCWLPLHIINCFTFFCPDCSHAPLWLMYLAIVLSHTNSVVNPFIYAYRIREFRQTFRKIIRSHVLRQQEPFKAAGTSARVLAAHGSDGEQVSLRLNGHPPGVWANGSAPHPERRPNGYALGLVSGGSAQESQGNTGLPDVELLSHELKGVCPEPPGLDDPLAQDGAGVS

Take `c1cncc(Nc2nc3ccccc3c3[nH]c(C4CCCCC4)nc23)c1`: the Activity in assay [1] worked out at 114%; in assay [2] it was 119%; in assay [3], 73.1%; in assay [4], 78.1%; in assay [5] it was 64.8%.

On to `Clc1ccc(Nc2nc3ccccc3c3nc(C4CCCCC4)[nH]c23)cc1Cl`, for which the Activity in assay [3] was 37%; in assay [4], -11.2%.

As to `Fc1ccc(Nc2nc3ccccc3c3[nH]c(C4CCCCC4)nc23)cc1F`, the Activity in assay [1] worked out at 187%; in assay [2], 197%; in assay [3], 14.6%; in assay [4], 26.5%; in assay [5] it was 68.8%.

Take `Clc1ccc(Nc2nc3ccccc3c3[nH]c(C4CCNCC4)nc23)cc1Cl`: the Activity in assay [1] worked out at 101%; in assay [3] it was 10.9%; in assay [4] it was 7%; in assay [5], 52.8%.

For `COc1ccc(Nc2nc3ccccc3c3[nH]c(C4CCCCC4)nc23)cc1OC`, the Activity was 173% in assay [1]; 182% in assay [2]; 75.6% in assay [3]; 93.8% in assay [4]; 98.4% in assay [5].

`Clc1ccc(Nc2nc3ccccc3c3[nH]c(C4CCC4)nc23)cc1Cl`: the Activity in assay [3] is -5.2%.

Consider `Clc1ccc(Nc2nc3ccccc3c3[nH]c(C4CCCCC4)nc23)c(Cl)c1`, for which the Activity stood at 174% in assay [1]; 187% in assay [2]; 48% in assay [3]; 67.2% in assay [4]; 43.9% in assay [5].

As to `N#Cc1ccc(Nc2nc3ccccc3c3nc(C4CCCCC4)[nH]c23)cc1C#N`, the Activity in assay [1] was determined as 129%; in assay [2], 138%; in assay [3], 33.1%; in assay [4] it was 37.2%; in assay [5], 42.2%.

`Clc1ccc(Nc2nc3ccccc3c3[nH]c([C@H]4C[C@H]5CC[C@@H]4C5)nc23)cc1Cl`: the Activity in assay [1] stood at 187%; in assay [3], 77.9%; in assay [4], 5.8%; in assay [5] it was 61.2%.

As to `Clc1ccc(Nc2nc3ccccc3c3[nH]c(C4CCN(Cc5ccccc5)CC4)nc23)cc1Cl`, the Activity in assay [1] was 93%; in assay [3], 17.8%; in assay [4], -3.1%; in assay [5], 46.3%.

On to `Clc1ccc(Nc2nc3ccccc3c3[nH]c(C4CCCCCC4)nc23)cc1Cl`, for which the Activity was -4.2% in assay [3] and -2.2% in assay [4].

`O=C(c1ccccc1)N1CCC(c2nc3c(Nc4ccc(Cl)c(Cl)c4)nc4ccccc4c3[nH]2)CC1`: the Activity in assay [1] was 91%; in assay [3], 20.2%; in assay [4], 8.8%; in assay [5] it was 29.8%.

With `Clc1cc(Cl)cc(Nc2nc3ccccc3c3[nH]c(C4CCCCC4)nc23)c1`, the Activity in assay [1] was 184%; in assay [2], 209%; in assay [3], 16.7%; in assay [4], -11.4%; in assay [5], 32.7%.

For the compound `Clc1cccc(Nc2nc3ccccc3c3[nH]c(C4CCCCC4)nc23)c1`, the Activity in assay [1] was 194%; in assay [2] it was 200%; in assay [3], 53.3%; in assay [4], 42.8%; in assay [5], 79.2%.

As for `O=C1c2ccccc2C(=O)N1[C@H]1CC[C@@H](c2nc3c(Nc4ccc(Cl)c(Cl)c4)nc4ccccc4c3[nH]2)CC1`, the Activity in assay [1] was found to be 102%; in assay [3], 21.4%; in assay [4] it was 56.8%; in assay [5], 5.6%.

For `c1ccc2c(c1)nc(Nc1ccc3c(c1)OCO3)c1nc(C3CCCCC3)[nH]c12`, the Activity was determined as 185% in assay [1]; 166% in assay [2]; 65.4% in assay [3]; 49% in assay [4]; 83.9% in assay [5].

Take `Clc1ccc(Nc2nc3ccccc3c3[nH]c(C45CC6CC(CC(C6)C4)C5)nc23)cc1Cl`: the Activity in assay [1] is 196%; in assay [3] it was 13.8%; in assay [4], -4.4%; in assay [5], 17.2%.

`Clc1ccc(Nc2nc3ccccc3c3[nH]c(C4CCOCC4)nc23)cc1Cl`: the Activity is 115% in assay [1], 37.2% in assay [3], -11.9% in assay [4] and 69.6% in assay [5].

As to `Clc1ccc(Nc2nc3ccccc3c3[nH]c(C45CC6CC(CC4C6)C5)nc23)cc1Cl`, the Activity was 139% in assay [1], 14.5% in assay [3], -17.3% in assay [4] and 3.3% in assay [5].

Consider `O=C(c1ccccc1)N1CCC(c2nc3c(Nc4ccccc4)nc4ccccc4c3[nH]2)CC1`, for which the Activity is 92% in assay [1], 12.4% in assay [3], 43.4% in assay [4] and 35.3% in assay [5].

For the compound `FC(F)(F)c1cc(Nc2nc3ccccc3c3nc(C4CCCCC4)[nH]c23)cc(C(F)(F)F)c1`, the Activity was determined as 137% in assay [1]; 143% in assay [2]; 7.2% in assay [3]; 15.6% in assay [4]; 21.8% in assay [5].

`Fc1cc(F)cc(Nc2nc3ccccc3c3[nH]c(C4CCCCC4)nc23)c1`: the Activity in assay [1] was determined as 188%; in assay [2], 171%; in assay [3], 36.6%; in assay [4], 17.2%; in assay [5], 70.1%.

Turning to `Clc1ccc(Nc2nc3ccccc3c3[nH]c(C4CCCC4)nc23)cc1Cl`, the Activity in assay [4] stood at 0%.

With `N[C@H]1CC[C@@H](c2nc3c(Nc4ccc(Cl)c(Cl)c4)nc4ccccc4c3[nH]2)CC1`, the Activity turned out to be 107% in assay [1], 31.7% in assay [3], 15.8% in assay [4] and 4.2% in assay [5].

On to `Clc1ccc(Nc2nc3ccccc3c3[nH]c([C@H]4C[C@H]5CC[C@H]4C5)nc23)cc1Cl`, for which the Activity in assay [1] was found to be 168%; in assay [3], 44.8%; in assay [4], 39.4%; in assay [5], 50.5%.
